Columns and labels:
Assay type in all cases: biochemical
PIP4K2B = target: T1, PIP4K2B (Homo sapiens, UniProt P78356); test: Trans-FI P kinase assay PIP4K2B (PIP4KtypeIIB inhibition assay); settings: compounds listed under IC50 bin headings; 100 uM GTP; read-out: Trans-FI P kinase assays: PIP4K2B IC50
T1 construct: made in house; host or cells: E. coli
T1 sequence (P78356 1-416): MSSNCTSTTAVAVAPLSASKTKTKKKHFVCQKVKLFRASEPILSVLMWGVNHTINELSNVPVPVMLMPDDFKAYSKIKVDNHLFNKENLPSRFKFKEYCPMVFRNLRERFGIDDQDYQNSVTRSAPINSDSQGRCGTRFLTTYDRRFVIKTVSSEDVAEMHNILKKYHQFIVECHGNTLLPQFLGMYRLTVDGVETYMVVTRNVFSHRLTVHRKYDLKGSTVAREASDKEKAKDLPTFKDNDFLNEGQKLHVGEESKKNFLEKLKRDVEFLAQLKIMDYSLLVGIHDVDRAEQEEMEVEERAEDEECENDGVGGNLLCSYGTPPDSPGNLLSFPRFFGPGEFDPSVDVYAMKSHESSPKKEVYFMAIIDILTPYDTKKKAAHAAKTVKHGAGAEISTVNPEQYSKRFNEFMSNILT
Procedure, shortened: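 Transcreener FI fluorescence read-out of GDP formed by E. coli-expressed GST-PIP4K2B (5 nM) using 100 uM GTP and 80 uM PI5P with DOPE carrier lipid, pH 7.3, 2 h reaction. Compounds (up to 4.8 uM) were preincubated with enzyme 1 h at 27 C; IC50 fitted from residual activity relative to no-inhibitor control.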

PIP4K 2A [1] = target: T2, PIP4K 2A (Homo sapiens, UniProt P48426); test: Kinase Assay PIP4K2 A (PIP4KtypeIIA inhibition assay); parameters: made in house; host or cells: E. coli; settings: compounds listed under IC50 bin headings
T2 sequence (P48426 1-406): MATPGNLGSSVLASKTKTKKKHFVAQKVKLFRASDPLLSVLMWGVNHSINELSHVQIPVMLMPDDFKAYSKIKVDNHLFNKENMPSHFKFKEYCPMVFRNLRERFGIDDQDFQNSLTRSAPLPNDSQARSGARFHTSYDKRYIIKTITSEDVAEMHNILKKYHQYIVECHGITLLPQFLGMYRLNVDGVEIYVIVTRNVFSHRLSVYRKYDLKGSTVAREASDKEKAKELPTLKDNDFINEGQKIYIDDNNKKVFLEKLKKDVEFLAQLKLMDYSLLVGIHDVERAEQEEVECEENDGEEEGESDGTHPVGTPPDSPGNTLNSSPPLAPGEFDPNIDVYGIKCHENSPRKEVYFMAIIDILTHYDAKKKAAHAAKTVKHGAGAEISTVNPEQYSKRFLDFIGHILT
Procedure, shortened: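 GST-tagged enzyme from E. coli at 0.5 nM final was preincubated with compound for 1 h at 27 C, then reacted with 10 uM ATP, 80 uM PI5P and DOPE carrier in 50 mM HEPES pH 7.3, 5% DMSO. After 1 h, ADP was measured by ADP-Glo luminescence against a calibration curve. IC50 was fitted from % residual activity.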

PIP4K 2A [2] = target: T2, PIP4K 2A; test: ADP-glo kinase assay PIP4K 2A; parameters: 4 nM PIP4K2A (full length protein, SignalChem); purchased SignalChem; settings: compounds listed under IC50 bin headings
Procedure, shortened: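 Inhibition was calculated versus DMSO controls from ADP-Glo luminescence and fitted to IC50 over a 10-point, threefold series. Compound was first pre-incubated 15 min at room temperature with PIP4K2A (full-length; 4 nM in the enzyme/substrate mix) and PI(5)P diC8 (100 μM in that mix). The reaction then ran for 1 h after adding 60 μM ATP solution, in MOPS pH 7.2/MgCl2/Tween buffer.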

IC50 (PIP4K2B) [nM] | IC50 (PIP4K 2A [1]) [nM] | IC50 (PIP4K 2A [2]) [nM] | SMILES
10 to 100 | ≤ 1 | 1 to 10 | COCCC(=O)N1CCN(c2cncc(Nc3cc4c(cn3)-c3ccc(N5CCCC5=O)cc3OC4(C)C)c2)CC1 [Example 170, 1-(3-((5-(4-(3-methoxypropanoyl)piperazin-1-yl)pyridin-3-yl)amino)-5,5-dimethyl-5H-chromeno[4,3-c]pyridin-8-yl)pyrrolidin-2-one]
10 to 100 | 1 to 10 | 1 to 10 | COCCC(=O)N1CCN(c2cncc(Nc3cc4c(cn3)-c3cc(F)c(N5CCCC5=O)cc3OC4(C)C)c2)CC1 [Example 173, 1-(9-fluoro-3-((5-(4-(3-methoxypropanoyl)piperazin-1-yl)pyridin-3-yl)amino)-5,5-dimethyl-5H-chromeno[4,3-c]pyridin-8-yl)pyrrolidin-2-one]
10 to 100 | ≤ 1 | ≤ 1 | C[C@H]1Oc2cc(N3CCCC3=O)ccc2-c2cnc(Nc3cnc4c(c3)N3C(=O)CC[C@H]3CO4)cc21 [Example 192, (S)-2-(((R)-5-methyl-8-(2-oxopyrrolidin-1-yl)-5H-chromeno[4,3-c]pyridin-3-yl)amino)-6,6a,7,8-tetrahydro-9H-pyrido[2,3-b]pyrrolo[1,2-d][1,4]oxazin-9-one]
1 to 10 | 1 to 10 | ≤ 1 | O=C1CCCN1c1ccc2c(c1)OC1(COC1)c1cc(Nc3cnc4c(c3)N3C(=O)CC[C@H]3CO4)ncc1-2 [Example 194, (S)-2-((8-(2-oxopyrrolidin-1-yl)spiro[chromeno[4,3-c]pyridine-5,3′-oxetan]-3-yl)amino)-6,6a,7,8-tetrahydro-9H-pyrido[2,3-b]pyrrolo[1,2-d][1,4]oxazin-9-one]
1 to 10 | ≤ 1 | ≤ 1 | O=C1CCCN1c1ccc2c(c1)OC1(CCC1)c1cc(Nc3cnc4c(c3)N3C(=O)CC[C@H]3CO4)ncc1-2 [Example 195, (S)-2-((8-(2-oxopyrrolidin-1-yl)spiro[chromeno[4,3-c]pyridine-5,1′-cyclobutan]-3-yl)amino)-6,6a,7,8-tetrahydro-9H-pyrido[2,3-b]pyrrolo[1,2-d][1,4]oxazin-9-one]
> 1000 | 100 to 1000 | > 1000 | O=C1CCCN1c1ccc2c(c1)OCc1c(-c3ccncc3)cncc1-2 [Example 202, 1-(4-(pyridin-4-yl)-5H-chromeno[4,3-c]pyridin-8-yl)pyrrolidin-2-one]
